Reference: US5358936A, “Anionic furanose derivatives, methods of making and using the same” (Gordon; Paul, priority 1991, dated 1994)
Where a name gives a salt, the structure may show the parent alone.

System: rat paw
Test: Post-ischemic reperfusion paw swelling (Example 22)
Type: in vivo, Sprague Dawley male rats
Conditions: for % Change as a result of treatment / Paw swelling, Mean ± SE: another study; for Paw swelling, Mean ± SE: i.p. 45 minutes prior; for Post-ischemic reperfusion 30 minute paw swelling, Mn ± SE: P < 0.02
Text: This important disease model is used to evaluate aspects of tissue injury that occur in heart attack, or myocardial infarction, and stroke. Under these conditions, a significant period of injury can occur after blood flow has been restored, during the period of reperfusion.
To produce ischemia, blood flow to the left hind foot was largely interrupted by application of a tourniquet made up of two size 18 rubber bands wound eight times around the leg just behind the heel. […] Both application and removal of tourniquet were carried out under ether anesthesia. Injury was equated with organ swelling, which was assayed by measurement of the dorsoventral foot diameter with a Schnelltaster caliper, just before application of the tourniquet and at various times following tourniquet removal, during the reperfusion period.
Rats employed were Sprague Dawley males, weighing 240-280 grams. Drug comparisons were made here employing measurements 30 minutes into the reperfusion period. The widely studied drug allopurinol, a xanthine oxidase inhibitor and a free radical scavenging agent, used in the treatment of gout, and widely used to suppress experimental post-ischemic reperfusion injury was used as an experimental treatment standard. In studies below, allopurinol and all new drugs were given intraperitoneally 45-60 minutes prior to application of the tourniquet. Data are reported as the mean swelling (Mn)±standard error (SE). […] Group n is 5 or 6.
In another study, drug comparisons were made at various times after the reperfusion period. In this study, control and drug treatment groups were as above.

`CC1(C)O[C@H]2O[C@H]([C@@H](COS(=O)(=O)O)OS(=O)(=O)O)[C@H](OS(=O)(=O)O)[C@H]2O1` [Compound III, 1,2-O-(2-Propylidene)-3,5,6-tri-O-sulfo-α-D-glucofuranose, tripotassium salt] was tested, and the “% Change as a result of treatment” value (reperfusion time 20 mins., i.p.) was -46%, the “Paw swelling, Mean ± SE” value (reperfusion time 20 mins., control 8.20 ± 1.02) was 4.60 ± 0.40 0.1 mm and the “% Change as a result of treatment” value (reperfusion time 30 mins., i.p.) was -36%. For the same compound, the “Paw swelling, Mean ± SE” value (reperfusion time 30 mins., control 6.60 ± 0.87) was 4.20 ± 0.37 0.1 mm, the “inhibition of ischemic rat paw edema” value (oral treatment route, after 20 minutes) was 44% and the “Swelling change as a result of treatment” value (study A, 30 minutes reperfusion, 0.2 mg/kg i.p.) was -53%. For the same compound, the “Post-ischemic reperfusion 30 minute paw swelling, Mn ± SE” value (study A, Compound III 0.2 mg/kg i.p. 45-60 minutes before tourniquet, control 12.7 ± 0.98) was 6.0 ± 0.32 0.1 mm, the “Swelling change as a result of treatment” value (study B, 30 minutes, i.p., Compound III 0.2 mg/kg, allopurinol 20 mg/kg) was -40% and the “Post-ischemic reperfusion 30 minute paw swelling, Mn ± SE” value (study B, i.p., Compound III 0.2 mg/kg, allopurinol 20 mg/kg, control 20.5 ± 0.76) was 12.2 ± 0.70 0.1 mm. The “Post-ischemic reperfusion 30 minute paw swelling, Mn ± SE” value (study C, 0.2 mg/kg i.p., control 18.4 ± 0.54) was 10.2 ± 0.28 0.1 mm and the “Swelling change as a result of treatment” value (study C, 30 minutes, 0.2 mg/kg i.p.) was -45%.
